{
  "source": "patent US20040110745A1",
  "about": "“Therapeutic chroman compounds” (priority 2001, published 2004)",
  "data": [
    {"tested_on": "not given", "experiment": "not given", "conditions": "not given", "values": [
      {"molecule": "CN1CCN(c2cccc3c2OC(C(=O)Nc2ccc(N4CCOCC4)cc2)CC3)CC1", "note": "(racemic) [Example 75, racemic-8-(4-Methyl-piperazin-1-yl)-chroman-2-carboxylic acid (4-morpholin-4-yl-phenyl)-amide]", "melting point": "215 to 216 °C"},
      {"molecule": "CN1CCN(c2cccc3c2OC(C(=O)Nc2ccc(N4CCOCC4)cc2)CC3=O)CC1", "note": "(racemic) [Example 78, racemic-8-(4-methyl-piperazin-1-yl)-4-oxo-chroman-2-carboxylic acid (4-morpholin-4-yl-phenyl)-amide]", "melting point": "215 to 216 °C"},
      {"molecule": "CN1CCN(c2cccc3c2OC(C(=O)Nc2ccc(N4CCOCC4)cc2)CC3=O)CC1", "note": "(single isomer, unassigned) [Example 79, 8-(4-Methyl-piperazin-1-yl)-4-oxo-chroman-2-carboxylic acid (4-morpholin-4-yl-phenyl)-amide]", "melting point": "216 °C (dec.)"},
      {"molecule": "CN1CCN(c2cccc3c2OC(C(=O)Nc2ccc(N4CCOCC4)cc2)CC3=O)CC1", "note": "(single isomer, unassigned) [Example 80, 8-(4-Methyl-piperazin-1-yl)-4-oxo-chroman-2-carboxylic acid (4-morpholin-4-yl-phenyl)-amide]", "melting point": "215 °C (dec.)"},
      {"molecule": "CN1CCN(c2cccc3c2OC(C(=O)Nc2ccc(N4CCOCC4)cc2)CC3)CC1", "note": "(single isomer, unassigned; (+)) [Example 76, (+)-8-(4Methyl-piperazin-1-yl)-chroman-2-carboxylic acid (4-morpholin-4-yl-phenyl)-amide]", "melting point": "206 to 207 °C"},
      {"molecule": "CN1CCN(c2cccc3c2OC(C(=O)Nc2ccc(N4CCOCC4)cc2)CC3)CC1", "note": "(single isomer, unassigned; (-)) [Example 77, (−)-8-(4-Methyl-piperazin-1-yl)-chroman-2-carboxylic acid (4-morpholin-4-yl-phenyl)-amide]", "melting point": "205.5 to 207 °C"},
      {"molecule": "CN1CCN(c2cccc3c(=O)cc(C(=O)Nc4ccc(N5CCOCC5)cc4)oc23)CC1", "note": "[Example 1, 8-(4-methyl-1-piperazinyl)-N-[4-(4-morpholinyl)phenyl]-4-Oxo-4H-chromene-2-carboxamide]", "melting point": "217 to 218 °C (dec.)"},
      {"molecule": "CN1CCN(c2cccc3c(=O)cc(C(=O)Nc4ccc(N5CCOCC5)cc4O)oc23)CC1", "note": "[Example 22, 8-(4-Methyl-piperazin-1-yl)-4-oxo-4H-chromene-2-carboxylic acid (2-hydroxy-4-morpholin-4-yl-phenyl)-amide]", "melting point": "248.4 to 249.6 °C"},
      {"molecule": "CN1CCN(c2cccc3c(=O)cc(C(=O)N(C)c4ccc(N5CCOCC5)cc4)oc23)CC1", "note": "[Example 25, 8-(4-Methylpiperazin-1-yl)-4-oxo-4H-chromene-2-carboxylic acid methyl-(4-morpholin-4-yl-phenyl)amide]", "melting point": "245 to 246.8 °C"},
      {"molecule": "COc1cc(N2CCN(C)CC2)c2oc(C(=O)Nc3ccc(N4CCOCC4)cc3)cc(=O)c2c1", "note": "[Example 31, 6-Methoxy-8-(4-methyl-piperazin-1-yl)-4-oxo-4H-chromene-2-carboxylic acid (4-morpholin-4-yl-phenyl)-amide]", "melting point": "234 to 236 °C"},
      {"molecule": "COc1cc(N2CCN(C)CC2)c2oc(C(=O)Nc3ccc(N4CCN(C(=O)CCO)CC4)cc3)cc(=O)c2c1", "note": "[Example 68, 6-Methoxy-8-(4-methyl-piperazin-1-yl)-4-oxo-4H-chromene-2-carboxylic acid {4-[4-(3-hydroxy-propanoyl)-piperazin-1-yl]-phenyl}-amide]", "melting point": "195 to 197 °C"},
      {"molecule": "CCS(=O)(=O)N1CCN(c2ccc(NC(=O)c3cc(=O)c4cc(F)cc(N5CCN(C)CC5)c4o3)cc2)CC1", "note": "[Example 71, 6-Fluoro-8-(4-methyl-piperazin-1-yl)-4-oxo-4H-chromene-2-carboxylic acid [4-(4-ethane sulfonyl-piperazin-1-yl)-phenyl]-amide]", "melting point": "233 to 234 °C"},
      {"molecule": "CN1CCN(c2cc(F)cc3c(=O)cc(C(=O)Nc4ccc(N5CCN(C(=O)CCO)CC5)cc4)oc23)CC1", "note": "[Example 73, 6-Fluoro-8-(4-methyl-piperazin-1-yl)-4-oxo-4H-chromene-2-carboxylic acid {4-[4-(3-hydroxy-propanoyl)-piperazin-1-yl]-phenyl}-amide]", "melting point": "195 to 199 °C"},
      {"molecule": "CCNC(=O)N1CCN(c2ccc(NC(=O)c3cc(=O)c4cc(F)cc(N5CCN(C)CC5)c4o3)cc2)CC1", "note": "[Example 81, 4-[4-({1-[6-Fluoro-8-(4-methyl-piperazin-1-yl)-4-oxo-4H-chromen-2-yl]-methanoyl}-amino)-phenyl]-piperazine-1-carboxylic acid Ethylamide]", "melting point": "236 to 238 °C"}
    ]},
    {"tested_on": "guinea pigs", "experiment": "learned helplessness assay for antidepressant/antianxiety activity", "format": "in vivo", "conditions": "guinea pig", "text": "The utility of the compounds for example to treat depression may be shown via a learned helplessness test in guinea pigs, which is used extensively as correlative to antidepressant activity in humans. The learned helplessness test may be carried out as follows: Seventy male Hartley guinea pigs, each weighing about 350-425 gm are fed ad lib, and are housed under a 12-hour light/dark cycle. The procedure consists of two phases: The induction phase and the avoidance training phase. In the induction phase, subjects are placed into standard shuttle cages (20 L×16 W×21 centimeters H) which are fitted with a grid floor. Electrical stimulation (1.25 mA, 10 sec duration) is delivered to the floor of the cage every 90-sec during 1 hour daily sessions. Subjects have no opportunity to escape or to avoid shocks. Induction is conducted for 2 consecutive days.\nIn avoidance training, testing is also conducted in the shuttle cages, except that the subjects are not returned to the same chamber in which induction had occurred. Additionally, all cages are fitted with a partition with an arch in the center of the cage, through which animals can pass between the left and right halves of the cage. The procedure employed is a standard shuttle avoidance procedure in which a compound, conditioned stimulus (a 10-sec presentation of a tone and turning on of a lamp on the side of the cage that the guinea pig was occupying) serves to indicate presentation of electrical current to the floor of the cage. Shock is presented for a 5 sec period, 5 sec after initiation of the conditioned stimulus. Entry into the opposite side of the shuttle cage via the arched partition prior to shock onset results in the end of the trial (avoidance response). If shock is delivered, entry into the opposite side of the cage results in termination of the shock and CS (escape). Reversal of learned helplessness in the induction subjects correlates to antidepressant activity of the test compound.\nAvoidance training, 45-min in duration, is conducted on 2 consecutive days, beginning 48 hr after the final induction session. Seventy subjects are assigned to 1 of 6 groups of 11-12 animals. The groups are as follows:\nGroups 2-6 are given induction and avoidance training sessions. Injections are administered immediately following induction sessions and 1 hour prior to avoidance training sessions. A second injection is administered 7-8 hours following the first injection, for a total of 9 injections administered over 5 days. No injections are administered following the final avoidance training session.\nCompounds of the present invention may be administered in a volume of 1 mL/kg bwt. Imipramine is dissolved in DI water. The compounds are dissolved in DI water, to which was added a few drops of lactic acid (pH 5.5). […]", "values": [
      {"molecule": "COc1cc(N2CCN(C)CC2)c2oc(C(=O)Nc3ccc(N4CCOCC4)cc3)cc(=O)c2c1", "note": "[Example 31, 6-Methoxy-8-(4-methyl-piperazin-1-yl)-4-oxo-4H-chromene-2-carboxylic acid (4-morpholin-4-yl-phenyl)-amide]", "activity in the learned helplessness assay": "demonstrate activity"},
      {"molecule": "CCC(=O)N1CCN(c2ccc(NC(=O)c3cc(=O)c4cc(OC)cc(N5CCN(C)CC5)c4o3)cc2)CC1", "note": "[Example 44, 6-Methoxy-8-(4-methyl-piperazin-1-yl)-4-oxo-4H-chromene-2-carboxylic acid [4-(4-propionyl-piperazin-1-yl)-phenyl]-amide]", "activity in the learned helplessness assay": "demonstrate activity"},
      {"molecule": "CCS(=O)(=O)N1CCN(c2ccc(NC(=O)c3cc(=O)c4cc(F)cc(N5CCN(C)CC5)c4o3)cc2)CC1", "note": "[Example 71, 6-Fluoro-8-(4-methyl-piperazin-1-yl)-4-oxo-4H-chromene-2-carboxylic acid [4-(4-ethane sulfonyl-piperazin-1-yl)-phenyl]-amide]", "activity in the learned helplessness assay": "demonstrate activity"},
      {"molecule": "CCC(=O)N1CCN(c2ccc(NC(=O)c3cc(=O)c4cc(F)cc(N5CCN(C)CC5)c4o3)cc2)CC1", "note": "[Example 72, 6-flouro-8-(4-methyl-piperazin-1-yl)-4-oxo-4H-chromene-2-carboxylic acid [4-(4-propionyl-piperazin-1-yl)-phenyl]-amide]", "activity in the learned helplessness assay": "demonstrate activity"}
    ]}
  ]
}
